Measured values taken from patent US20260241028A1, “METAL-BASED ANTIBODY-DRUG CONJUGATES AND METHODS OF MAKING AND USING THEREOF” (Laboratory for Synthetic Chemistry and Chemical Biology …, priority 2024, published 2026).
pIC50: −log10 of the molar value. Read-outs that look alike come from different tables or passages of the source.

What was measured:
[1] = test system: SKBR3; test: In vitro anti-proliferative activity (NBB assay), SKBR3; type: cell-based; conditions: 72 h
Protocol: (§1) Cells (4×10^3 cells/well) were seeded in a microtiter plate (96 wells) and incubated overnight before the treatment. […] After the media was removed, the cells were fixed with formaldehyde (3%; 50 μL) in PBS and stained with NBB reagent (0.05%, 0.1 M sodium acetate, 9% acetic acid; 50 μL) for overnight. The stained cells in each well were washed thrice gently with deionized water and solubilized in sodium hydroxide solution (50 mM; 100 μL). The cell viability was determined by measuring the absorbance of 620 nm in each well by microplate reader. The experiments were repeated in triplicate.

[2] = test system: NCI-N87; test: In vitro anti-proliferative activity (NBB assay), NCI-N87; type: cell-based; conditions: Table 1; 72 h; read-out: IC50 NCI-N87 gastric
Protocol: as §1

[3] = test system: SW1990; test: In vitro anti-proliferative activity (NBB assay), SW1990; type: cell-based, human; conditions: 72 h
Protocol: as §1

[4] = test system: SKOV3; test: In vitro anti-proliferative activity (NBB assay), SKOV3; type: cell-based; conditions: Table 1; 72 h; read-out: IC50 SKOV3 ovarian
Protocol: as §1

[5] = test system: PANC1; test: In vitro anti-proliferative activity (NBB assay), PANC1; type: cell-based; conditions: Table 1; 72 h; read-out: IC50 PANC1 pancreas
Protocol: as §1

[6] = test system: BxPC3; test: In vitro anti-proliferative activity (NBB assay), BxPC3; type: cell-based, human; conditions: 72 h
Protocol: as §1

[7] = test system: NCI-H460; test: In vitro anti-proliferative activity (NBB assay), NCI-H460; type: cell-based; conditions: Table 1; 72 h; read-out: IC50 NCI-H460 lung
Protocol: as §1

[8] = test system: HT29; test: In vitro anti-proliferative activity (NBB assay), HT29; type: cell-based; conditions: Table 1; 72 h; read-out: IC50 HT29 colon
Protocol: as §1

[9] = test system: HEK293; test: In vitro anti-proliferative activity (NBB assay), HEK293; type: cell-based, human; conditions: Table 1; 72 h; read-out: IC50 HEK293 kidney
Protocol: as §1

[10] = test system: MHCC97L; test: In vitro anti-proliferative activity (NBB assay), MHCC97L; type: cell-based; conditions: Table 1; 72 h; read-out: IC50 MHCC97L liver
Protocol: as §1

[11] = test system: MDA-MB-231; test: In vitro anti-proliferative activity (NBB assay), MDA-MB-231; type: cell-based; conditions: Table 1; 72 h; read-out: IC50 MDA-MB-231 breast
Protocol: as §1

[12] = test system: A549; test: In vitro anti-proliferative activity (NBB assay), A549; type: cell-based; conditions: Table 1; 72 h; read-out: IC50 A549 lung
Protocol: as §1

[13] = test system: HCC827; test: In vitro anti-proliferative activity (NBB assay), HCC827; type: cell-based, human; conditions: 72 h
Protocol: as §1

[14] = test system: Calu3; test: In vitro anti-proliferative activity (NBB assay), Calu3; type: cell-based, human; conditions: 72 h
Protocol: as §1

[15] = test system: HCT116; test: In vitro anti-proliferative activity (NBB assay), HCT116; type: cell-based; conditions: Table 1; 72 h; read-out: IC50 HCT116 colon
Protocol: as §1

[16] = test system: panel of cell lines; test: NBB assay, summary over the panel of cell lines; type: cell-based
Protocol: as §1

[17] = test system: TROP2-overexpressed cancer cells (HCC827, Calu3, BxPC3, SW1990); test: Flow cytometric binding study, TROP2-overexpressed cells; type: cell-based, human; conditions: flow cytometry, 4° C., 1 h
Protocol: Cells (2×10^5 cells/tube) were suspended in FACS staining buffer (2% FBS in PBS) into a 1.5 mL eppendorf tube. They were incubated with Sacituzumab, ADC-Au or IgG control respectively in staining buffer (100 μL) at 4° C. After 1 h, the cell suspensions were centrifuged at 1500 rpm for 3 min at 4° C. and washed with staining buffer (1 mL) twice to discard unbound antibodies. The cells were then incubated with Alexa Fluor 594 goat anti-human secondary antibody at 4° C. for 1 h and then subject to centrifugation. The cells were washed twice again and were resuspended in staining buffer. The mean fluorescence intensities (MFI) were measured using Beckman Cytoflex S Flow Cytometer.

[18] = test system: TROP2-overexpressed cancer cells (HCC827, Calu3, BxPC3, SW1990, SKBR3); test: NBB assay, summary over TROP2-overexpressed cancer cells; type: cell-based; conditions: all the cells of Table 2
Protocol: as §1

[19] = Table 1, read-out: IC50 SKBR3 breast
[20] = Table 1, read-out: IC50 SW1990 pancreas
[21] = Table 1, read-out: IC50 BxPC3 pancreas
[22] = Table 1, read-out: IC50 HCC827 lung
[23] = Table 1, read-out: IC50 Calu3 lung

Row | Compound | pIC50 [1, 19] | pIC50 [2] | pIC50 [3, 20] | pIC50 [4] | pIC50 [5] | pIC50 [6, 21] | pIC50 [7] | pIC50 [8] | pIC50 [9] | pIC50 [10] | pIC50 [11] | pIC50 [12] | pIC50 [13, 22] | pIC50 [14, 23] | pIC50 [15] | further results
1 | O=C(O)c1ccc(C2=c3ccc4[n]3[Au-]35[n]6c(ccc6C(c6ccccc6)=C6C=CC2=[N+]63)C(c2ccccc2)=C2C=CC(=[N+]25)C=4c2ccccc2)cc1.[Cl-] (centres unmarked) [AuCOOH] | 6.57 | 5.88 | 5.66 | 5.54 | 5.61 | 6.08 | 6.38 | 6.19 | 6.19 | 5.58 | 6.15 | 6.16 | 5.75 | 5.75 | 6.15 | cytotoxicity / potency compared with the other gold complexes [16]: lowest cytotoxicity
2 | C1=CC2=[N+]3C1=C(c1ccccc1)c1ccc4[n]1[Au-]31[n]3c(ccc3=C(c3ccccc3)C3=[N+]1C(=C4c1ccccc1)C=C3)=C2c1ccccc1.Cl [AuTPP, gold (III) tetraphenylporphyrin, reference compound] | 7.10 | 7.00 | 6.77 | 7.05 | 7.00 | 7.10 | 6.92 | 6.92 | 6.89 | 6.82 | 6.74 | 7.05 | 6.85 | 6.54 | 6.82 | 
3 | Sacituzumab: TROP2-targeted monoclonal antibody (MCE) |  |  |  |  |  |  |  |  |  |  |  |  |  |  |  | pIC50 ([1]; Table 2, Example 1 (Sacituzumab ADC), read-out: IC50 SKBR3): < 5.70; pIC50 ([3]; Table 2, Example 1 (Sacituzumab ADC), read-out: IC50 SW1990): < 5.70; specific binding to TROP2-overexpressed cancer cells [17]: significant specific-binding; pIC50 ([6]; Table 2, Example 1 (Sacituzumab ADC), read-out: IC50 BxPC3): < 5.70; pIC50 ([13]; Table 2, Example 1 (Sacituzumab ADC), read-out: IC50 HCC827): < 5.70; cell growth inhibition [18]: not obvious; pIC50 ([14]; Table 2, Example 1 (Sacituzumab ADC), read-out: IC50 Calu3): < 5.70
